Test results reported in paper PMC11167047 (Cell Death Discovery, 2024).

How the values were obtained:
Test in all cases: kinome screen (33PanQinase)
Format in all cases: biochemical
[1] = molecular target: T1, ACVR1 (Homo sapiens, UniProt Q04771)
T1 construct: purchased Reaction Biology Europe GmbH (formerly ProQinase)
T1 sequence (Q04771 21-509): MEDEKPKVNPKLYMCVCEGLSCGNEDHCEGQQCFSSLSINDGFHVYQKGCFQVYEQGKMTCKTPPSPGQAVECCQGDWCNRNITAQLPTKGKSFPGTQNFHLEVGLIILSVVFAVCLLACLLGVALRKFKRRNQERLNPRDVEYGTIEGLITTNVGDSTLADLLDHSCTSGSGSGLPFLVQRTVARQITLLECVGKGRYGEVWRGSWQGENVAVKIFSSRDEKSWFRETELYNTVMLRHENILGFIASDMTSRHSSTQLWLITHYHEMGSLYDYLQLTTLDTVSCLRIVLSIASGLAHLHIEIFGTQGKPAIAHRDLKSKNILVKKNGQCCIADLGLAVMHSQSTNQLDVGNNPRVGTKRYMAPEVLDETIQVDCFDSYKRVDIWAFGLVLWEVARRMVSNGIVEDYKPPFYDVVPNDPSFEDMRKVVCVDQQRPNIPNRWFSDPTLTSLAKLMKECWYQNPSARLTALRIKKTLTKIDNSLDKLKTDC
Description: (§1) The Kinome Screening was performed by Reaction Biology Europe GmbH (http://reactionbiology.com; Freiburg i. Br., Germany).

[2] = molecular target: T2, CAMK1D (Homo sapiens, UniProt Q8IU85)
T2 construct: purchased Reaction Biology Europe GmbH (formerly ProQinase)
Description: as §1

[3] = molecular target: T3, CDK12/CycK (Homo sapiens, UniProt Q9NYV4)
T3 construct: purchased Reaction Biology Europe GmbH (formerly ProQinase)
T3 sequence (Q9NYV4 whole entry): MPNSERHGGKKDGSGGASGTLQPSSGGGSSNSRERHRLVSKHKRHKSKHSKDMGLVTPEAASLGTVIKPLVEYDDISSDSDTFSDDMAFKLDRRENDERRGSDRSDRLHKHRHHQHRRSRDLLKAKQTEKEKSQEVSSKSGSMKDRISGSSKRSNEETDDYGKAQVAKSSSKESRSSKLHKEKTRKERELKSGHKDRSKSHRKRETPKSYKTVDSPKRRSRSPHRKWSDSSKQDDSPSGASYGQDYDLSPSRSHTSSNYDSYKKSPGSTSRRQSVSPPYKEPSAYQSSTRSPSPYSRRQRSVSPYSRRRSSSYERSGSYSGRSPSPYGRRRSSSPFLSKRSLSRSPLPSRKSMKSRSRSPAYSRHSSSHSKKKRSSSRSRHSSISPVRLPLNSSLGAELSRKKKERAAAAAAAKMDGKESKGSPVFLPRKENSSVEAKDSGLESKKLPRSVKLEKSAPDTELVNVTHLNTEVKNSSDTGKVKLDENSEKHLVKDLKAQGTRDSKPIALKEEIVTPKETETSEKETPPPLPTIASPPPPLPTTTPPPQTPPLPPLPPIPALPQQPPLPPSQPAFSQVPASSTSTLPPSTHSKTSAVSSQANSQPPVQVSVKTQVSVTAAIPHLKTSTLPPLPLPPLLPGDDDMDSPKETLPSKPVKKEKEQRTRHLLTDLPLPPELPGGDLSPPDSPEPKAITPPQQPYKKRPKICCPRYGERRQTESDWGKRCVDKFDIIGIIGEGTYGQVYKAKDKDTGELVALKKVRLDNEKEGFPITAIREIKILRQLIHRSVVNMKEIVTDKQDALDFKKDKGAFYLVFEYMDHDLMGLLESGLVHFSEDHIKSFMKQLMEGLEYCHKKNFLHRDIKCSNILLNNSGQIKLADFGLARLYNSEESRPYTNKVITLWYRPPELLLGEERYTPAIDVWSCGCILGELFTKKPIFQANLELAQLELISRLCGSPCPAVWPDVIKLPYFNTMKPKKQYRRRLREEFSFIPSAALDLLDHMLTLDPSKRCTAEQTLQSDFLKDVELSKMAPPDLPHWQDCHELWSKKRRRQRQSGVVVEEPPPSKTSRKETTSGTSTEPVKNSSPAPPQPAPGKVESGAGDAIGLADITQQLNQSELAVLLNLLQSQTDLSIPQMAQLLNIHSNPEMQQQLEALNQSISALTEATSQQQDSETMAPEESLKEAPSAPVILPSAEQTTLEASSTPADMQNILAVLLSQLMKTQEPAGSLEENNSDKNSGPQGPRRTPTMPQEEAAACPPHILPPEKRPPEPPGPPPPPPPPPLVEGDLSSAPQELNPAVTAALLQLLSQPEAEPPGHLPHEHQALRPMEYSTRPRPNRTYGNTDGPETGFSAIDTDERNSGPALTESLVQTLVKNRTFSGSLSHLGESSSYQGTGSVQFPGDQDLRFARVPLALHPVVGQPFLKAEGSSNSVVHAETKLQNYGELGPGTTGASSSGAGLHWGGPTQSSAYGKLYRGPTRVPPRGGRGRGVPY
T3 sequence (O75909 whole entry partner): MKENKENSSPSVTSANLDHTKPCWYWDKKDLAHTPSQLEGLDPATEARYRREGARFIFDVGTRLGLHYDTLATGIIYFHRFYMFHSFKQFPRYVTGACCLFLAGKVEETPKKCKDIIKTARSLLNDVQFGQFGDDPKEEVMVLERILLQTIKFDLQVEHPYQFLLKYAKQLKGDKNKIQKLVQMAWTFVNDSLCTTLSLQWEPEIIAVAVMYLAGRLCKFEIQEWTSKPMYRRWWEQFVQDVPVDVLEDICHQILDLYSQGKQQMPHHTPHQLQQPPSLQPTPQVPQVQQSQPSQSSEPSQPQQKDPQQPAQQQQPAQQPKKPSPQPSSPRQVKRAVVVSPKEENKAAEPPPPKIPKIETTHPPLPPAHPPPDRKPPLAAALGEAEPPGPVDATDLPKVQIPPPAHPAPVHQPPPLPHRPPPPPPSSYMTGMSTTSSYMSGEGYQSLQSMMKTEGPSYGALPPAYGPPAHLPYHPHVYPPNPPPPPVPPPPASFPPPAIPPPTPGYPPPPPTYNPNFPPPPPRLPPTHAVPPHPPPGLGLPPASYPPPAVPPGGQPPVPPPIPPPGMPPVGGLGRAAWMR
Description: as §1

[4] = molecular target: T4, CDK2/CycA2 (Homo sapiens, UniProt P24941)
T4 construct: purchased Reaction Biology Europe GmbH (formerly ProQinase)
Description: as §1

[5] = molecular target: T5, CSK (Homo sapiens, UniProt P41240)
T5 construct: purchased Reaction Biology Europe GmbH (formerly ProQinase)
T5 sequence (P41240 whole entry): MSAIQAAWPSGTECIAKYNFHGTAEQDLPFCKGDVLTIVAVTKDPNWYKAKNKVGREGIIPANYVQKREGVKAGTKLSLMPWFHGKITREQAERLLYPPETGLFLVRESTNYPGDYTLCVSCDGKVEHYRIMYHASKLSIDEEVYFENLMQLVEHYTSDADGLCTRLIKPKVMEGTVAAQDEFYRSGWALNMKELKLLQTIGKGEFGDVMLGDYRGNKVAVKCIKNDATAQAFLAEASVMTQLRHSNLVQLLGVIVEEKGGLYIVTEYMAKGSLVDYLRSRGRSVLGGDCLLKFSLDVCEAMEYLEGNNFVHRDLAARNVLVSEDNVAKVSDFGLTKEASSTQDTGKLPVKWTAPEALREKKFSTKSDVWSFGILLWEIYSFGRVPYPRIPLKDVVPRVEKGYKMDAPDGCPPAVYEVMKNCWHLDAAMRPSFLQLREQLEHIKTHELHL
Description: as §1

[6] = molecular target: T6, EPHA7 (Homo sapiens, UniProt Q15375)
T6 construct: purchased Reaction Biology Europe GmbH (formerly ProQinase)
Description: as §1

[7] = molecular target: T7, ERK1 (Homo sapiens, UniProt P27361)
T7 construct: purchased Reaction Biology Europe GmbH (formerly ProQinase)
T7 sequence (P27361 whole entry): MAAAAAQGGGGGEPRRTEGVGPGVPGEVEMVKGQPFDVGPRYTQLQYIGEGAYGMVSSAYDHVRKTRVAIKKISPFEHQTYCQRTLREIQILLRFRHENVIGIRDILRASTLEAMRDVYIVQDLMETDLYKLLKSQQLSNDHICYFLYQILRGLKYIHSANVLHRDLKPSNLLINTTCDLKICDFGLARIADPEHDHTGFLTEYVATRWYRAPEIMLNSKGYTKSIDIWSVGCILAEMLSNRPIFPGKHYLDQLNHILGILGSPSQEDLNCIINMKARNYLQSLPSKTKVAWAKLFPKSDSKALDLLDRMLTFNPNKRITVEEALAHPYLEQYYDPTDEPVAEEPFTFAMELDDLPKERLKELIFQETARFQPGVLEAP
Description: as §1

[8] = molecular target: T8, LYN (Homo sapiens, UniProt P07948)
T8 construct: purchased Reaction Biology Europe GmbH (formerly ProQinase)
Description: as §1

[9] = molecular target: T9, MARK2 (Homo sapiens, UniProt Q7KZI7)
T9 construct: purchased Reaction Biology Europe GmbH (formerly ProQinase)
T9 sequence (Q7KZI7 whole entry): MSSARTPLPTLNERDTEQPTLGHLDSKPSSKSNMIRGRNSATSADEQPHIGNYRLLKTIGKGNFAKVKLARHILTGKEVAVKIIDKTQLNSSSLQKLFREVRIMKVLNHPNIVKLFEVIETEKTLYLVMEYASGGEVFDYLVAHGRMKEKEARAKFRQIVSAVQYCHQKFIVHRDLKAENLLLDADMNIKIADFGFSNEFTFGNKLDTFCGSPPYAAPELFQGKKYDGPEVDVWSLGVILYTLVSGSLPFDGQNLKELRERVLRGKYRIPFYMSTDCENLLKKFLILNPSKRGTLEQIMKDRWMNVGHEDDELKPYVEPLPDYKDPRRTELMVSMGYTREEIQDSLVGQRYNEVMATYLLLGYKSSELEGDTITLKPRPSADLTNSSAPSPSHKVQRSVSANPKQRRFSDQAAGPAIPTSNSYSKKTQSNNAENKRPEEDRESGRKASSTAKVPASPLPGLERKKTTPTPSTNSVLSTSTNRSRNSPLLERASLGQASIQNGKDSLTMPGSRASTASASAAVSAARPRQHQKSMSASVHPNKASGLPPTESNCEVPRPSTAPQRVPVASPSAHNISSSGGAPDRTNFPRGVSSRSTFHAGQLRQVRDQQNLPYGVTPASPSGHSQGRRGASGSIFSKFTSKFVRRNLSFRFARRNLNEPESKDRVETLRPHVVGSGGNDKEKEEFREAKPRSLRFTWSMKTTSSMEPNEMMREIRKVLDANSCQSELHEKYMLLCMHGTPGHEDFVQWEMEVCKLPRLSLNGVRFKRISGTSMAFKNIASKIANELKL
Description: as §1

[10] = molecular target: T10, NEK4 (Homo sapiens, UniProt P51957)
T10 construct: purchased Reaction Biology Europe GmbH (formerly ProQinase)
Description: as §1

[11] = molecular target: T11, PAK1 (Homo sapiens, UniProt Q13153)
T11 construct: purchased Reaction Biology Europe GmbH (formerly ProQinase)
Description: as §1

[12] = molecular target: T12, PRKD2 (Homo sapiens, UniProt Q9BZL6)
T12 construct: purchased Reaction Biology Europe GmbH (formerly ProQinase)
T12 sequence (Q9BZL6 1-878): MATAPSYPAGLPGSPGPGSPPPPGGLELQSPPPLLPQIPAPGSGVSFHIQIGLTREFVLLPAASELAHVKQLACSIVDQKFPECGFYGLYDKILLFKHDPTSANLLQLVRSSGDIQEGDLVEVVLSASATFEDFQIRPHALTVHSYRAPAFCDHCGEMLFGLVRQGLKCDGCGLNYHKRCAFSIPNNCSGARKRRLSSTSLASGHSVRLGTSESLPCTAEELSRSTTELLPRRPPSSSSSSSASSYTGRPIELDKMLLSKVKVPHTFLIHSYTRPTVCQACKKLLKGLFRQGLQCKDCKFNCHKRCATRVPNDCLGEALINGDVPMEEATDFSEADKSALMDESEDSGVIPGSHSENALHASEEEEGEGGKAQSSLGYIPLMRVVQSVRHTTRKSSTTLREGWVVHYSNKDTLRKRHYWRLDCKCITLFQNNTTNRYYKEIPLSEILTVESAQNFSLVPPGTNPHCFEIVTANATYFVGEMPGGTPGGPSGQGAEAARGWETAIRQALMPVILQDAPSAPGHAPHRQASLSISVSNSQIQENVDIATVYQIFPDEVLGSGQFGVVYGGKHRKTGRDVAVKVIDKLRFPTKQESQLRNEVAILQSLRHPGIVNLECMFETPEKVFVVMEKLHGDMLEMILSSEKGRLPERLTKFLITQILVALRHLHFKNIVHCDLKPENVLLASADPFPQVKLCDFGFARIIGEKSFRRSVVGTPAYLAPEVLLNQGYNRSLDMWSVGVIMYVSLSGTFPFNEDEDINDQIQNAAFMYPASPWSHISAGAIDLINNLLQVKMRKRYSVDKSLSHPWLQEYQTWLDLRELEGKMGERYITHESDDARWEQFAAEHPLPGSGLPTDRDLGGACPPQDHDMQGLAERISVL
Description: as §1

[13] = molecular target: T13, RPS6KA2 (Homo sapiens, UniProt Q15349)
T13 construct: purchased Reaction Biology Europe GmbH (formerly ProQinase)
T13 sequence (Q15349 whole entry): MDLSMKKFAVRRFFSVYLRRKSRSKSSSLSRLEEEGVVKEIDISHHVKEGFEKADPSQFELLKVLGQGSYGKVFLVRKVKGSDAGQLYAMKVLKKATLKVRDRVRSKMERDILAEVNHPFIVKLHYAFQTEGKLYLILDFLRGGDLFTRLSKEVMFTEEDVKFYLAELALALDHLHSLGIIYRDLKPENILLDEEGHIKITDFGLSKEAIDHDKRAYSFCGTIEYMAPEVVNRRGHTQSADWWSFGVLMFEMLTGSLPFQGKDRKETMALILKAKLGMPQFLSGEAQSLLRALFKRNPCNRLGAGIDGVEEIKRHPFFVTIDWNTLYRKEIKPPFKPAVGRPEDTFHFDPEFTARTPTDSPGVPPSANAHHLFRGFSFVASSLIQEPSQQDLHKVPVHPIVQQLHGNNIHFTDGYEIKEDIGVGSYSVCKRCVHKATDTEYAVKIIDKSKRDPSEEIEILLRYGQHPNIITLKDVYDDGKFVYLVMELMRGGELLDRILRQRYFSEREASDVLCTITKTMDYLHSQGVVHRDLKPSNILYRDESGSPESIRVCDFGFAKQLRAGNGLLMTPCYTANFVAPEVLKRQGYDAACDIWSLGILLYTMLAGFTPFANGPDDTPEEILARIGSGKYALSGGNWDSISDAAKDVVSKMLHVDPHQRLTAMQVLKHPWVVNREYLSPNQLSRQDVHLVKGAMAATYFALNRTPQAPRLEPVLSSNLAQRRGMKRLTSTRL
Description: as §1

[14] = molecular target: T14, TGFBR1 (Homo sapiens, UniProt P36897)
T14 construct: purchased Reaction Biology Europe GmbH (formerly ProQinase)
T14 sequence (P36897 34-503): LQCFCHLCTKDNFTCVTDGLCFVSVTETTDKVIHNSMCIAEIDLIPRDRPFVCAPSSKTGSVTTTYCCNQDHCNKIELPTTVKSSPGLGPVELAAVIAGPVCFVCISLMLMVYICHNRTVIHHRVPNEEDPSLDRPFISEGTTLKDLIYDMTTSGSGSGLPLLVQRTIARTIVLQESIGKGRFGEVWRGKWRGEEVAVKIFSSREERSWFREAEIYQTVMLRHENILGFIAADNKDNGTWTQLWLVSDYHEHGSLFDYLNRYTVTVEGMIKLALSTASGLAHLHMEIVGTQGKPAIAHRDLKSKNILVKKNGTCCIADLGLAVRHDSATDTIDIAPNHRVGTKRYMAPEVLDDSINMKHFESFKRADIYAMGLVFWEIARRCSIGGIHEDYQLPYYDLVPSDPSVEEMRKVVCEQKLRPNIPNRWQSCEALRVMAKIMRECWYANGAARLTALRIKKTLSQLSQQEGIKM
Description: as §1

[15] = molecular target: T15, YES (Homo sapiens, UniProt P07947)
T15 construct: purchased Reaction Biology Europe GmbH (formerly ProQinase)
T15 sequence (P07947 whole entry): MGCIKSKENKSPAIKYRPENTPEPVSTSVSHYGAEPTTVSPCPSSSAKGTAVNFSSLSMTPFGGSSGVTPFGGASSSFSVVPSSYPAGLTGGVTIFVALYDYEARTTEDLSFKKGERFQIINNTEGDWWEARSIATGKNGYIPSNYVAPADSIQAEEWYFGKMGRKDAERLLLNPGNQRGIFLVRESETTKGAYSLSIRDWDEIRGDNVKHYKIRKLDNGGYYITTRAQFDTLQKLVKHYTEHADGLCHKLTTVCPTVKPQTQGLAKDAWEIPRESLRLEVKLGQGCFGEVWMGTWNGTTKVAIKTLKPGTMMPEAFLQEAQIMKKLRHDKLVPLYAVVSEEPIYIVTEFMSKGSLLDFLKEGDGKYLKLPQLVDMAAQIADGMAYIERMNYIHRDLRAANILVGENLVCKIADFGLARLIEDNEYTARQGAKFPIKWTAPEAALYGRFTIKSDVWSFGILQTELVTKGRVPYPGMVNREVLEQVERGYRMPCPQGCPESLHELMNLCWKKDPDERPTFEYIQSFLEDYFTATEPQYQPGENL
Description: as §1

Compound | residual kinase activity ([1]; 0.3 µM) | residual kinase activity ([2]; 0.3 µM) | residual kinase activity ([3]; 0.3 µM) | residual kinase activity ([4]; 0.3 µM) | residual kinase activity ([5]; 0.3 µM) | residual kinase activity ([6]; 0.3 µM) | residual kinase activity ([7]; 0.3 µM) | residual kinase activity ([8]; 0.3 µM) | residual kinase activity ([9]; 0.3 µM) | residual kinase activity ([10]; 0.3 µM) | residual kinase activity ([11]; 0.3 µM) | residual kinase activity ([12]; 0.3 µM) | residual kinase activity ([13]; 0.3 µM) | residual kinase activity ([14]; 0.3 µM) | residual kinase activity ([15]; 0.3 µM) | further results
COc1ccnc2[nH]cc(-c3cc(N)nc(N)c3)c12 [meriolin 16] | 72 % of control | 81 % of control | 1 % of control | 2 % of control | 106 % of control | 107 % of control | 96 % of control | 81 % of control | 88 % of control | 47 % of control | 98 % of control | 37 % of control | 34 % of control | 67 % of control | 90 % of control | residual kinase activity ([1]; 0.03 µM): 89 % of control; residual kinase activity ([2]; 0.03 µM): 102 % of control; residual kinase activity ([3]; 0.03 µM): 21 % of control; residual kinase activity ([4]; 0.03 µM): 18 % of control; residual kinase activity ([5]; 0.03 µM): 114 % of control; residual kinase activity ([6]; 0.03 µM): 122 % of control; residual kinase activity ([7]; 0.03 µM): 111 % of control; residual kinase activity ([8]; 0.03 µM): 105 % of control; residual kinase activity ([9]; 0.03 µM): 91 % of control; residual kinase activity ([10]; 0.03 µM): 89 % of control; residual kinase activity ([11]; 0.03 µM): 106 % of control; residual kinase activity ([12]; 0.03 µM): 87 % of control; residual kinase activity ([13]; 0.03 µM): 87 % of control; residual kinase activity ([14]; 0.03 µM): 65 % of control; residual kinase activity ([15]; 0.03 µM): 100 % of control
c1ccc(CNc2cc(-c3c[nH]c4ncccc34)ccn2)cc1 [meriolin 36] | 24 % of control | 70 % of control | 1 % of control | 1 % of control | 116 % of control | 131 % of control | 72 % of control | 73 % of control | 98 % of control | 84 % of control | 85 % of control | 68 % of control | 6 % of control | 18 % of control | 65 % of control | residual kinase activity ([1]; 3 µM): 1 % of control; residual kinase activity ([2]; 3 µM): 38 % of control; residual kinase activity ([3]; 3 µM): 2 % of control; residual kinase activity ([4]; 3 µM): 2 % of control; residual kinase activity ([5]; 3 µM): 71 % of control; residual kinase activity ([6]; 3 µM): 93 % of control; residual kinase activity ([7]; 3 µM): 37 % of control; residual kinase activity ([8]; 3 µM): 25 % of control; residual kinase activity ([9]; 3 µM): 63 % of control; residual kinase activity ([10]; 3 µM): 37 % of control; residual kinase activity ([11]; 3 µM): 76 % of control; residual kinase activity ([12]; 3 µM): 25 % of control; residual kinase activity ([13]; 3 µM): 0 % of control; residual kinase activity ([14]; 3 µM): 0 % of control; residual kinase activity ([15]; 3 µM): 19 % of control
